The source of these data is patent US11752150B2, “Anti-tumor immunotherapy enhancer” (Nobuo Tsukamoto, priority 2017, dated 2023).

This test relates to mouse cancer cells MCA205 IDO1WT. Nature of the test: Tumor volume in C57BL/6 mice implanted with MCA205 IDO1WT cells (1-MT and Y15). It counts as in vivo. As to conditions: MCA205 IDO1WT in C57BL/6; Y15 600 μg/animal i.p. once a day from Day 5; 1-MT 4 mg/mL in drinking water from Day 5; n=5; FIG. 23. On the procedure: On Day 0, 5×10^5 mouse cancer cells MCA205 IDO1WT expressing the wild-type mouse IDO1 gene were implanted into the ventral side of C57BL/6 mice.
The FAK inhibitor Y15 (MedChem Express) was dissolved in PBS and administered intraperitoneally once a day from Day 5 at 600 μg/100 μl/animal. In the control group, PBS was intraperitoneally administered at 100 μl/animal once a day from Day 5.
The major axis and minor axis of the tumor were measured every two days. The tumor volume was calculated as 0.5×(major axis)×(minor axis)^2.

Structures are written as SMILES.

`Cl.Cl.Cl.Cl.Nc1cc(N)c(N)cc1N` [Y15, 1,2,4,5-benzenetetraamine tetrahydrochloride]: the tumor volume entry is “a smaller tumor was formed as compared with the group to which neither drug was administered”.
